The results in this text go back to patent US6159705A, “Recombinant yeast cells for identifying receptor effectors” (Cadus Pharmaceutical Corporation, priority 1997, dated 2000).

Where two headings read alike, the source gives them in different places. Where no end group is shown, it is not given here.

Data set [1] relates to CY6571 yeast growth (HIS3 gene product). Kind of data set: Elimination of LIRMA growth, strain CY6571 (FPRL-1). Type of data set: cell-based, S. cerevisiae. The settings on record: CY6571, selective media. Here is the method: It was determined that the yeast growth on selective media that resulted from LIRMA was eliminated by the additional of 2.5 millimolar concentrations of 3-aminotriazole (AT). AT is an inhibitor of the HIS3 gene product that serves to reduce background growth. Therefore, selection protocols aimed at the identification of surrogate ligands for the FPRL-1 receptor were carried out at this concentration of AT.

The subject of data set [2] is CY7467 yeast growth (HIS3 gene product). Put plainly: Elimination of LIRMA growth, strain CY7467 (thrombin receptor). Type of data set: cell-based, S. cerevisiae. The settings on record: CY7467, selective media. On the procedure: It was determined that the yeast growth on selective media that resulted from LIRMA was eliminated by the addition of 2.5 millimolar concentrations of 3-aminotriazole (AT). AT is an inhibitor of the HIS3 gene product that serves to reduce background growth. Therefore, selection protocols aimed at the identification of novel peptide ligands for the human thrombin receptor were carried out at this concentration of AT.

Data set [3] concerns human orphan receptor FPRL-1. Put plainly: Growth on -Leu-Ura-His + 2.5 mM AT, yeast expressing FPRL-1. Type of data set: cell-based. Particulars: yeast bearing FPRL-1-encoding plasmid (CY6571), plasmids A1 and A3-A10. From the text:
The yeast strain CY1141 (MATalpha far1*1441 tbt1-1 fus1-HIS3 can 1 ste14::trp1:;LYS2 ste3*1156 gpa1(41)-Galphai2 lys2 ura3 leu2 trp1 his3) was used in the experiments that follow. CY1141 contains a pheromone inducible HIS3 gene, fus1-HIS3 integrated at the FUS1 locus and a hybrid gene encoding the first 41 amino acids of GPA1 (yeast G alpha) fused to sequence encoding human G alphai2 (lacking codons encoding the N-terminal 33 amino acids) replacing GPA1 at its chromosomal locus. The yeast STE14 gene is disrupted to lower the basal level of signaling through the pheromone response pathway. The yeast a-factor receptor gene, STE3, is deleted. CY1141 was transformed with Cadus 2311 to yield CY6571, a strain expressing the human orphan receptor, FPRL-1.
It was determined that the yeast growth on selective media that resulted from LIRMA was eliminated by the additional of 2.5 millimolar concentrations of 3-aminotriazole (AT). AT is an inhibitor of the HIS3 gene product that serves to reduce background growth. […]
CY6571 was inoculated to 10 mls of standard synthetic media (SD) lacking leucine (-Leu) and incubated overnight at 30° C. […] The OD600 of each cell suspension was determined and crude plasmid isolations were done on 8-16 OD units of cells for each pool. […]

The target in a further data set is T1, FPRL-1 receptor (Homo sapiens, UniProt P25090).
T1 sequence (P25090 1-351): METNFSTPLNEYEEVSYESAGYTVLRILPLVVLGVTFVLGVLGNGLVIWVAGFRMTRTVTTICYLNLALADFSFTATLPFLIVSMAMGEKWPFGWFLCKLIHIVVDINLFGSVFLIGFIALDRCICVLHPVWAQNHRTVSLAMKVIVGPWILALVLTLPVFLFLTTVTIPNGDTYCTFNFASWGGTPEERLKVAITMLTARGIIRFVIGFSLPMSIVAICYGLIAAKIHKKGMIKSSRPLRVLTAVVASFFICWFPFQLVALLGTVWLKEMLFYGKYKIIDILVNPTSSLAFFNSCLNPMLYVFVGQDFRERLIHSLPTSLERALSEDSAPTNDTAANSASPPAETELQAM

For the next data set, the system named is human thrombin receptor. Kind of data set: Growth on -Leu-Ura-His + 2.5 mM AT, yeast expressing thrombin receptor. Type of data set: cell-based. The settings on record: yeast bearing thrombin receptor plasmid (CY7467). From the text: The amplified product was purified by gel electrophoresis, restricted with NcoI and BamHI and ligated to NcoI and BamHI-cut CADUS 1871, a PGK promoter-driven expression vector, to yield CADUS 2260. Cloning into CADUS 1871 introduces a novel stop codon preceded by the triplet GlySerVal after the authentic carboxy terminal codon of the human thrombin receptor (threonine). In addition, an invertase signal sequence is fused to the authentic amino terminus of the receptor.
The yeast strain CY1141 (MATalpha far1*1442 tbt1-1 fus1-HIS3 can1 ste14::trp1::LYS2 ste3* 1156 gpal(41)-Galphai2 lys2 ura3 leu2 trp1 his3) was transformed with CADUS 2260 to yield strain CY7467, expressing the human thrombin receptor. CY7467 was inoculated to 10 mls of standard synthetic media (SD) lacking leucine (-Leu) and incubated overnight at 30 C. […] The OD600 of each cell suspension was determined and crude plasmid isolations were done on 8-16 OD units of cells for each pool. […]
Strain CY7467 was transformed with […] of each plasmid pool by electroporation. […] The cells from each of these plates were scraped into 5 mls of H2 O, the OD600 of the cell suspensions were determined and crude plasmid isolations were done on 8-16 OD units of yeast cells. […]

Experimental for FPRL-1 receptor: For verificatiin of pheromone pathway activation and quantification of the stimulation, the activity of the fus1 promoter was determined colorimetrically using a fus1-lacZ fusion in a parallel set of test strains. CY1141, described above, was used as the recipient strain for these experiments. […] Four strains (bearing the identical plasmids) were grown overnight in minimal media lacking leucine, uracil, and tryptophan, pH8.6. The overnight cultures were used to inoculate -Leu -Ura -Trp pH6.8 media and these new cultures were grown for approximately 4.5-5 hours to an OD600 of less than 0.4.

As for `Nc1nc[nH]n1` [3-aminotriazole], the “concentration at which LIRMA growth was eliminated” value in data set [1] and in data set [2] was 2.5 millimolar each time.

In the case of SLLWLTCRPWEAM [peptide A1], the “growth advantage on media lacking histidine” value in data set [3] is given as “conferred a growth advantage”. Besides, the β-galactosidase activity with FPRL-1 receptor (R+ L+ (CY1141/CADUS 2311/peptide A1/CADUS 1584)) is 28 units; with FPRL-1 receptor (R- L+ (CY1141/CADUS 1289/peptide A1/CADUS 1584)) it was 3.5 units. Besides, the “stimulation over background levels of β-galactosidase” value in the data set with FPRL-1 receptor (yeast cy1141) came out at 8 fold.

Turning to “VCPARYVLPGPVL [SEQ ID NO:45, peptide from random library, conferring growth via human thrombin receptor]”, in the data set with human thrombin receptor, the “growth advantage on media lacking histidine” value was “conferred a growth advantage”.
